Reference: patent publication US7491729B2, “3-Substituted 3,4-dihydro-thieno[2,3-d]pyrimidin-4-one derivatives, production and use thereof” (Abbott GmbH & Co. KG, priority 2002, dated 2009)

Legend:
[1] = molecular target: T1, 5-HT1A receptors (Homo sapiens, UniProt P08908); test: Receptor binding studies, displacement of (3H)-8-OH-DPAT on membranes of HEK293 cells expressing 5-HT1A receptors; details: 0.2 nM (3H)-8-OH-DPAT, 22° C.
T1 construct: expressed in transfected cells; host or cells: HEK293
T1 sequence (P08908 1-422): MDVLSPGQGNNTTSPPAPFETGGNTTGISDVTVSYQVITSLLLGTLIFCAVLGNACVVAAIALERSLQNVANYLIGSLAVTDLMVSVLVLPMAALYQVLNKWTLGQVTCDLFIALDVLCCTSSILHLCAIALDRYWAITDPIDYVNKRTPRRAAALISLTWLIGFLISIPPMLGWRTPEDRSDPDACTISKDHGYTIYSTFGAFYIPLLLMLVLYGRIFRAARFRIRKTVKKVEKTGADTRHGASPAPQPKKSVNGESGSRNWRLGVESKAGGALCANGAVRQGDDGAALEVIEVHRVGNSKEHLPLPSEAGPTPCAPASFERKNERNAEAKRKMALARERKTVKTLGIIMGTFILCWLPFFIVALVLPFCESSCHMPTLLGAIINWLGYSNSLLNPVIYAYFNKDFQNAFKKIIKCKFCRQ
Description: (§1) HEK293 cells which expressed 5-HT1A or 5-HT1B receptors were cultivated in RPMI 1640 (Life Technologies, Eggenstein, Germany) comprising 10% fetal calf serum. All the culture media were supplemented with 2 mM L-glutamine and 400 mg/l Geneticin G418 (Life Technologies). The cells were grown in a moist atmosphere with 6% CO2 at 37° C. and detached with a buffer comprising 0.0004% EDTA, 0.02% EGTA, 2.68 mM KCl, 1.47 mM KH2PO4, 6.46 mM Na2HPO4 and 136.9 mM NaCl (pH 7.4). The harvested cells were washed once with cold phosphate-buffered Dulbecco's saline solution (PBS), centrifuged (200×g; 10 minutes) and adjusted to a cell density of 10^8 cells per cryovial. After renewed centrifugation, the pellets were resuspended in 1 ml of ice-cold dissolving buffer (5 mM Tris/HCl (pH 7.4), 10% glycerol) and incubated at 4° C. for 30 minutes. The suspension was then centrifuged at 900×g for 10 minutes, the supernatants were removed, and the pellets were stored in liquid nitrogen until used.
(§2) Initially, the affinities of the radio ligands ((^3H)-8-OH-DPAT for 5-HT1A receptors; or (^3H)-5-CT for 5-HT1B receptors) were calculated from saturation plots where triplicate determinations of the specific and nonspecific binding were carried out for each test concentration. Each sample was composed of 50 μg of cellular proteins of the particular membrane preparation, the radio ligand with or without competing compound (5-HT) in a total volume of 0.5 ml. A buffer consisting of 50 mM Tris/HCl (pH 7.4) and 5 mM CaCl2 was used. Incubation was at 22° C. for 9 minutes.
(§3) For Ki determinations, the test compounds were titrated three times in displacement experiments against a fixed concentration of radio ligand ((0.2 nM (^3H)-8-OH-DPAT; or 0.2 nM (^3H)-5-CT). The other test conditions corresponded to those described for the saturation experiments. The total and the nonspecific binding (10 μM 5-HT as competitor of 5-HT1A and 100 μM for 5-HT1B) was determined for each experimental series.
(§4) The incubation for binding and displacement was terminated by filtering and washing the samples on glass fiber filters (GF/B) using a Skatron 7200 cell harvester (Zinsser, Frankfurt, Germany). The sample filters were transferred into scintillation vials comprising 5 ml of scintillator (Ultima Gold XR) and agitated for 1 hour, and then measured in a liquid scintillation counter. Saturation and competition plots were calculated with the aid of a computer program based on LIGAND (Mundson, P J and Reodbard, D; Anal. Biochem. 107, 220 (1980)).

[2] = molecular target: T2, 5-HT1B receptors (Homo sapiens, UniProt P28222); test: Receptor binding studies, displacement of (3H)-5-CT on membranes of HEK293 cells expressing 5-HT1B receptors; details: 0.2 nM (3H)-5-CT, 22° C.
T2 construct: expressed in transfected cells; host or cells: HEK293
Description: as §1, §2, §3, §4

[3] = test system: serotonin release in the cortex; details: after systemic administration; cited from earlier work

T2 sequence (P28222 whole entry): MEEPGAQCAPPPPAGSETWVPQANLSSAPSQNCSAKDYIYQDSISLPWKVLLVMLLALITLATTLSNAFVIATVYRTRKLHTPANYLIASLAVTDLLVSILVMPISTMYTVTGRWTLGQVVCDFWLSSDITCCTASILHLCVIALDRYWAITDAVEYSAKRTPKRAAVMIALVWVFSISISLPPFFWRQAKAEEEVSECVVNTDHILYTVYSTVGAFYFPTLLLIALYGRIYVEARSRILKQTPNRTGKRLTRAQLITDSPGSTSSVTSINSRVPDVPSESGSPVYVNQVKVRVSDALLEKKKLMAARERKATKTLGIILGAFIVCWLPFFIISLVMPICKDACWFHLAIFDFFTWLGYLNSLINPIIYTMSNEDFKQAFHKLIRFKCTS

Row | Ki [1] [nM] | Ki [2] [nM] | melting point [°C] | SMILES | serotonin release in the cortex [3]
1 | 13.7 | 7.9 | – | COc1ccc2onc(N3CCN(CCn4cnc5sc6c(c5c4=O)CCN(C)C6)CC3)c2c1 [Example 15, 4-(5-Methoxy-1,2-benzisoxazol-3-yl)-1-[2-(7-methyl-4-oxo-5,6,7,8-tetrahydropyrido[4′,3′:4,5]thieno[2,3-d]pyrimidin-3(4H)-yl)ethyl]piperazin-1-ium chloride] | –
2 | – | – | 227 to 229 | CN1CCc2c(sc3ncn(CCN4CCN(c5nc6ccccc6[nH]5)CC4)c(=O)c23)C1 [Example 8, 3-{2-[4-(1H-Benzimidazol-2-yl)piperazin-1-yl]ethyl}-7-methyl-5,6,7,8-tetrahydropyrido[4′,3′:4,5]thieno[2,3-d]pyrimidin-4(3H)-one] | –
3 | 1.3 | 2.3 | – | COc1ccc2c(c1)c(C1CCN(CCn3cnc4sc5c(c4c3=O)CCN(C)C5)CC1)cn2C [Example 16, 4-(5-Methoxy-1-methyl-1H-indol-3-yl)-1-[2-(7-methyl-4-oxo-5,6,7,8-tetrahydropyrido[4′,3′:4,5]thieno[2,3-d]pyrimidin-3(4H)-yl)ethyl]piperidinium chloride] | –
4 | – | – | – | COc1ccc(NC(=O)c2ccc(-c3ccc(-c4noc(C)n4)cc3C)cc2)cc1N1CCN(C)CC1 [GR 127 935] | reduced
5 | – | – | 88 to 89 | CN1CCc2c(sc3ncn(CCN4CCN(c5nsc6cccc(Cl)c56)CC4)c(=O)c23)C1 [Example 5, 3-{2-[4-(4-Chloro-1,2-benzisothiazol-3-yl)piperazin-1-yl]ethyl}-7-methyl-5,6,7,8-tetrahydropyrido[4′,3′:4,5]thieno[2,3-d]pyrimidin-4(3H)-one] | –
6 | 1.4 | 0.9 | 82 to 84 | CN1CCc2c(sc3ncn(CCN4CCN(c5nsc6ccccc56)CC4)c(=O)c23)C1 [Example 4, 3-{2-[4-(1,2-Benzisothiazol-3-yl)piperazin-1-yl]ethyl}-7-methyl-5,6,7,8-tetrahydropyrido[4′,3′:4,5]thieno[2,3-d]pyrimidin-4(3H)-one] | –
7 | 98.3 | 286 | – | CN1CCc2c(sc3ncn(CCN4CCC(c5cc(-c6cccs6)[nH]n5)CC4)c(=O)c23)C1 [Example 24, 1-[2-(7-Methyl-4-oxo-5,6,7,8-tetrahydropyrido[4′,3′:4,5]thieno[2,3-d]pyrimidin-3(4H)-yl)ethyl]-4-[5-(2-thienyl)-1 H-pyrazol-3-yl]piperidinium chloride] | –
8 | 11.5 | 3.5 | – | CN1CCc2c(sc3ncn(CCN4CCN(c5n[nH]c6ccccc56)CC4)c(=O)c23)C1 [Example 13, 3-{2-[4-(1H-Indazol-3-yl)piperazin-1-yl]ethyl}-7-methyl-5,6,7,8-tetrahydropyrido[4′,3′:4,5]thieno[2,3-d]pyrimidin-4(3H)-one] | –
9 | – | – | 160 to 162 | CN1CCc2c(sc3ncn(CCN4CCN(c5nc6ccc(Cl)cc6s5)CC4)c(=O)c23)C1 [Example 7, 3-{2-[4-(6-Chloro-1,3-benzothiazol-2-yl)piperazin-1-yl]ethyl}-7-methyl-5,6,7,8-tetrahydropyrido[4′,3′:4,5]thieno[2,3-]pyrimidin-4(3H)-one] | –
10 | – | – | 130 to 132 | CN1CCc2c(sc3ncn(CCN4CCN(c5nc6ccccc6o5)CC4)c(=O)c23)C1 [Example 10, 3-{2-[4-(1,3-Benzoxazol-2-yl)piperazin-1-yl]ethyl}-7-methyl-5,6,7,8-tetrahydropyrido[4′,3′:4,5]thieno[2,3-d]pyrimidin-4(3H)-one] | –
11 | – | – | 151 to 153 | CN1CCc2c(sc3ncn(CCN4CCN(c5nc6ccccc6s5)CC4)c(=O)c23)C1 [Example 11, 3-{2-[4-(1,3-Benzothiazol-2-yl)piperazin-1-yl]ethyl}-7-methyl-5,6,7,8-tetrahydropyrido[4′,3′:4,5]thieno[2,3-d]pyrimidin-4(3H)-one] | –
12 | – | – | 166 to 167 | CN1CCc2c(sc3ncn(CCN4CCN(c5nc6cc(C(F)(F)F)ccc6s5)CC4)c(=O)c23)C1 [Example 6, 7-Methyl-3-(2-{4-[5-(trifluoromethyl)-1,3-benzothiazol-2-yl]piperazin-1-yl}ethyl)-5,6,7,8-tetrahydropyrido[4′,3′:4,5]thieno[2,3-d]pyrimidin-4(3H)-one] | –
13 | 42.7 | 24.3 | – | CN1CCc2c(sc3ncn(CCN4CCN(c5snc6ccccc56)CC4)c(=O)c23)C1 [Example 31, 4-(2,1-Benzisothiazol-3-yl)-1-[2-(7-methyl-4-oxo-5,6,7,8-tetrahydropyrido[4′,3′:4,5]thieno[2,3-d]pyrimidin-3(4H)-yl)ethyl]piperazin-1-ium chloride] | –
14 | 6.2 | 4.5 | – | Cc1ccc2onc(N3CCN(CCn4cnc5sc6c(c5c4=O)CCN(C)C6)CC3)c2c1 [Example 9, 7-Methyl-3-{2-[4-(5-methyl-1,2-benzisoxazol-3-yl)piperazin-1-ium-1-yl]ethyl}-4-oxo-3,4,5,6,7,8-hexahydropyrido[4′,3′:4,5]thieno[2,3-d]spyrimidin-7-ium dichloride] | –

Row | SMILES | Ki [1] [nM] | Ki [2] [nM] | melting point [°C] | serotonin release in the cortex [3]
15 | CN1CCc2c(sc3ncn(CCN4CC=C(c5c[nH]c6ccccc56)CC4)c(=O)c23)C1 [Example 20, 3-{2-[4-(1H-Indol-3-yl)-3,6-dihydropyridin-1(2H)-yl]ethyl}-7-methyl-5,6,7,8-tetrahydropyrido[4′,3′:4,5]thieno[2,3-d]pyrimidin-4(3H)-one] | 1.2 | 1 | – | –
16 | CN1CCc2c(sc3ncn(CCN4CC=C(c5c[nH]c6ncccc56)CC4)c(=O)c23)C1 [Example 21, 1-[2-(7-Methyl-4-oxo-5,6,7,8-tetrahydropyrido[4′,3′:4,5]thieno[2,3-d]pyrimidin-3(4H)-yl)ethyl]-4-(1H-pyrrolo[2,3-b]pyridin-3-yl)-1,2,3,6-tetrahydropyridinium acetate] | 14.6 | 1 | – | –
17 | CN1CCc2c(sc3ncn(CCN4CC=C(c5csc6ccccc56)CC4)c(=O)c23)C1 [Example 28, 3-{2-[4-(1-Benzothien-3-yl)-3,6-dihydropyridin-1 (2H)-yl]ethyl}-7-methyl-5,6,7,8-tetrahydropyrido[4′,3′:4,5]thieno[2,3-d]pyrimidin-4(3H)-one] | 1.3 | 2 | – | –
18 | COc1ccc2[nH]cc(C3=CCN(CCn4cnc5sc6c(c5c4=O)CCN(C)C6)CC3)c2c1 [Example 32, 3-{2-[4-(5-methoxy-1H-indol-3-yl)-3,6-dihydropyridin-1(2H)-yl]ethyl}-7-methyl-5,6,7,8,-tetrahydropyrido[4′,3′:4,5]thieno[2,3-d]pyrimidin-4(3H)-one] | 0.5 | 0.6 | – | –
